# Measured values published in patent US6267972A, “Cosmetic/pharmaceutical compositions comprising β-adrenergic agonists/substance P antagonists” (Societe L'Oreal S.A., priority 1995, dated 2001).
# Structures can show the parent of a compound that is named as a salt.
# Legend:
# substance P = assay: In vivo functional test, neurogenic inflammation model: antidromic stimulation of the saphenous nerve, Evans blue tissular extravasation
# Excerpt: The test entailed creating a neurogenic inflammation by the antidromic stimulation of the saphenous nerve in the anaesthetized animal. This nerve innervates the cutaneous regions of the hind paws. The stimulation causes the release from the nerve endings of substance P, which is partially responsible for the neurogenic inflammation. The neurogenic inflammation was quantified by measuring the tissular permeability with Evans blue, a marker for the tissular extravasation of plasma albumin which occurs during inflammation. This reference model was used in the in vivo search for substance P antagonists. […] Dose Effect of Salbutamol in the Antidromic Stimulation Model Presented in Example 1
# sensitive skins = assay: Test with capsaicin: topical application of capsaicin cream, appearance of subjective signs; assay type: in vivo, human; details: 0.05 ml cream with 0.075% capsaicin on approx. 4 cm^2 of skin; subjects with sensitive skins
# Protocol: In order to determine if a skin is sensitive or not, the assignee hereof has also developed a test.
# The test with capsaicin entails topically applying,. to approximately 4 cm^2 of skin, 0.05 ml of a cream comprising 0.075% of capsaicin and in noting the appearance of subjective signs caused by this application, such as smarting, burning sensations and itching.
# [1] = 1 μmol, Table I, mean of 8 experiments, p < 0.001
compound,measurement,setting,value
CC(C)NCC(O)c1ccc(O)c(O)c1 (centres unmarked) [Isoproterenol],% of inhibition,substance P; [1],100%
CC(C)(C)NCC(O)c1ccc(O)c(CO)c1 (centres unmarked) [Salbutamol],% of inhibition,substance P; [1],100%
same,"activity with respect to the release of substance P, dose dependence",substance P; 0.1 to 100 nmol,dose dependent
same,% of inhibition,"substance P; Table II, dose 0.1 nmol, n.s. (not significant)",17%
same,% of inhibition,"substance P; Table II, dose 1 nmol, p < 0.05",65%
same,% of inhibition,"substance P; Table II, dose 10 nmol, p < 0.01",80%
same,% of inhibition,"substance P; Table II, dose 100 nmol, p < 0.01",100%
same,"activity relative to that of the reference molecule, Spantide II",substance P; antidromic stimulation model,approximately 30 times
COc1cc(CNC(=O)CCCC/C=C/C(C)C)ccc1O [capsaicin],erythema following subjective signs,sensitive skins,followed by the appearance of an erythema
Spantide II,% of inhibition,"substance P; 30 nmol, Table I, mean of 8 experiments, p < 0.01",59%
same,% of inhibition,"substance P; Table II, dose 30 nmol, p < 0.01",67%
CC(CCc1ccccc1)NC(C)C(O)c1ccc(O)cc1 (centres unmarked) [Nylidrin.HCl],% of inhibition,substance P; [1],95%
CC(C)(C)NCC(O)COc1cccc2[nH]c(=O)[nH]c12 (centres unmarked) [CGP12177.HCl],% of inhibition,substance P; [1],77%
same,Concentration (μg/ml of Evans blue),"substance P; 1 μmol, mean of 8 experiments, expressed as Evans blue, n.d.: not detected, control 5.98 ± 0.65",1.37 ± 0.32 µg/mL
